Results published in patent US20220267379A1, “NOVEL INHIBITORS OF […] AND USES THEREOF” (Ecole Polytechnique Federale de Lausanne (EPFL), priority 2019, published 2022).
Where two headings read alike, the source gives them in different places.

Key:
KLK7 [1] = target: KLK7
KLK7 [2] = target: KLK7; remark: listed apart in the source
Text: Head of the field: Ki [nM]
In contrast to the first generation, they contain only two cysteines cyclized with one linker. The K values are shown as mean of three measurements ±SD.
First copying reader's note: The two cysteines are bridged by a drawn acetone (C=O) linker shown above the sequence columns; the Ki cells hold the value ± its error against KLK7.

Row | Substance | Ki (KLK7 [1]) | Ki (KLK7 [2])
1 | P C L Y L S C P [compound 089] | 50 ± 5 nM | –
2 | P C L Y L S R C S [compound 095] | – | 90 ± 7 nM
3 | P C L Y M A R C S [compound 111] | – | 10 ± 1.3 nM
